# Reference: the supplement of paper PMC6045584
# ± gives the standard deviation of the averaged measurements.
# Compound: CO[C@H]1C[C@@H]2CC[C@@H](C)[C@@](O)(O2)C(=O)C(=O)N2CCCC[C@H]2C(=O)O[C@H]([C@H](C)C[C@@H]2CC[C@@H](OCCO)[C@H](OC)C2)CC(=O)[C@H](C)/C=C(\C)[C@@H](O)[C@@H](OC)C(=O)[C@H](C)C[C@H](C)/C=C/C=C/C=C/1C [EVEROLIMUS]
# Assay: surviving fraction relative to DMSO-only wells; higher = less growth inhibition
# Conditions: 0.5 nM; exposure time: 5 days
# Method in brief: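 Lines were retained only if, across three screens, replicate Pearson r was >0.7 and median Z' was >0.3. Viability was measured as CellTiter-Glo luminescence and reported as surviving fraction relative to the median of DMSO-only wells. Readings followed 10 minutes at room temperature, after log-phase tumour cells seeded at 250–500 per well in 384-well plates had been exposed, from 24 hours after seeding, continuously for five days to inhibitors at 0.5, 1, 5, 10, 50, 100, 500 and 1000 nM.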
row,Test System,surviving fraction
1,22RV1 PROSTATE,0.788 ± 0.065
2,93VU HEADNECK,0.953 ± 0.098
3,143B BONE,0.954 ± 0.032
4,A549 LUNG,0.962 ± 0.022
5,ASKA SYNOVIAL,1 ± 0.077
6,BT20 BREAST,0.595 ± 0.042
7,BT549 BREAST,0.569 ± 0.026
8,CADOES1 SOFT TISSUE,0.842 ± 0.1
9,CAL51 BREAST,0.684 ± 0.049
10,CAL120 BREAST,0.707 ± 0.073
11,CASKI CERVIX,0.57 ± 0.035
12,CHLA90 AUTONOMIC GANGLIA,0.634 ± 0.051
13,CME SYNOVIAL,1.2 ± 0.12
14,COLO320DM LARGE INTESTINE,0.945 ± 0.056
15,DU4475 BREAST,0.429 ± 0.1
16,H23 LUNG,0.811 ± 0.023
17,HCC38 BREAST,1.17 ± 0.022
18,HCC70 BREAST,0.866 ± 0.073
19,HCC78 LUNG,0.516 ± 0.13
20,HCC202 BREAST,1 ± 0.083

row,Test System,surviving fraction
1,HCC1806 BREAST,0.918 ± 0.13
2,HCC1954 BREAST,0.4 ± 0.05
3,HCT15 LARGE INTESTINE,0.803 ± 0.066
4,HELA CERVIX,1.04 ± 0.027
5,HMLE3 BREAST,1.02 ± 0.065
6,HMT3552 BREAST,0.742 ± 0.097
7,HOS BONE,0.885 ± 0.015
8,HOSMNG BONE,1.03 ± 0.013
9,HS57T BREAST,0.614 ± 0.029
10,HS578T BREAST,0.6 ± 0.095
11,HSSYII SYNOVIAL,0.781 ± 0.043
12,HT1080 SOFT TISSUE,1.04 ± 0.029
13,HU09 BONE,0.669 ± 0.016
14,JIMT1 BREAST,0.752 ± 0.021
15,JURKAT HAEMATOPOIETIC AND LYMPHOID TISSUE,0.988 ± 0.023
16,KPD BONE,0.603 ± 0.044
17,LM7 BONE,0.934 ± 0.053
18,MCF7 BREAST,0.673 ± 0.049
19,MDAMB134 BREAST,0.843
20,MDAMB157 BREAST,0.696 ± 0.11

# Same assay, conditions: 1 nM; exposure time: 5 days
row,Test System,surviving fraction
1,22RV1 PROSTATE,0.588 ± 0.14
2,93VU HEADNECK,0.905 ± 0.076
3,143B BONE,0.948 ± 0.022
4,A549 LUNG,0.927 ± 0.018
5,ASKA SYNOVIAL,0.93 ± 0.1
6,BT20 BREAST,0.46 ± 0.037
7,BT549 BREAST,0.531 ± 0.061
8,CADOES1 SOFT TISSUE,0.74 ± 0.072
9,CAL51 BREAST,0.527 ± 0.046
10,CAL120 BREAST,0.602 ± 0.062
11,CASKI CERVIX,0.506 ± 0.025
12,CHLA90 AUTONOMIC GANGLIA,0.512 ± 0.026
13,CME SYNOVIAL,1.2 ± 0.2
14,COLO320DM LARGE INTESTINE,0.983 ± 0.072
15,DU4475 BREAST,0.272 ± 0.054
16,H23 LUNG,0.724 ± 0.011
17,HCC38 BREAST,1.01 ± 0.065
18,HCC70 BREAST,0.749 ± 0.059
19,HCC78 LUNG,0.674 ± 0.26
20,HCC202 BREAST,0.79 ± 0.055

row,Test System,surviving fraction
1,HCC1806 BREAST,0.911 ± 0.043
2,HCC1954 BREAST,0.376 ± 0.082
3,HCT15 LARGE INTESTINE,0.702 ± 0.066
4,HELA CERVIX,1.04 ± 0.014
5,HMLE3 BREAST,0.956 ± 0.02
6,HMT3552 BREAST,0.6117 ± 0.0057
7,HOS BONE,0.861 ± 0.0096
8,HOSMNG BONE,0.95 ± 0.051
9,HS57T BREAST,0.535 ± 0.0078
10,HS578T BREAST,0.598 ± 0.019
11,HSSYII SYNOVIAL,0.711 ± 0.066
12,HT1080 SOFT TISSUE,0.991 ± 0.013
13,HU09 BONE,0.602 ± 0.037
14,JIMT1 BREAST,0.663 ± 0.014
15,JURKAT HAEMATOPOIETIC AND LYMPHOID TISSUE,0.917 ± 0.041
16,KPD BONE,0.529 ± 0.026
17,LM7 BONE,0.87 ± 0.056
18,MCF7 BREAST,0.597 ± 0.058
19,MDAMB134 BREAST,0.789 ± 0.071
20,MDAMB157 BREAST,0.817 ± 0.043

# Same assay, conditions: 5 nM; exposure time: 5 days
row,Test System,surviving fraction
1,22RV1 PROSTATE,0.452 ± 0.043
2,93VU HEADNECK,0.865 ± 0.024
3,143B BONE,0.846 ± 0.03
4,A549 LUNG,0.8767 ± 0.0076
5,ASKA SYNOVIAL,0.787 ± 0.085
6,BT20 BREAST,0.394 ± 0.041
7,BT549 BREAST,0.415 ± 0.032
8,CADOES1 SOFT TISSUE,0.529 ± 0.052
9,CAL51 BREAST,0.406 ± 0.026
10,CAL120 BREAST,0.501 ± 0.028
11,CASKI CERVIX,0.473 ± 0.018
12,CHLA90 AUTONOMIC GANGLIA,0.342 ± 0.021
13,CME SYNOVIAL,1.29 ± 0.071
14,COLO320DM LARGE INTESTINE,0.835 ± 0.081
15,DU4475 BREAST,0.148 ± 0.0015
16,H23 LUNG,0.567 ± 0.049
17,HCC38 BREAST,0.897 ± 0.11
18,HCC70 BREAST,0.606 ± 0.017
19,HCC78 LUNG,0.528 ± 0.11
20,HCC202 BREAST,0.548 ± 0.15

row,Test System,surviving fraction
1,HCC1806 BREAST,0.888 ± 0.085
2,HCC1954 BREAST,0.399 ± 0.074
3,HCT15 LARGE INTESTINE,0.599 ± 0.07
4,HELA CERVIX,1.04 ± 0.029
5,HMLE3 BREAST,0.813 ± 0.036
6,HMT3552 BREAST,0.591 ± 0.021
7,HOS BONE,0.804 ± 0.018
8,HOSMNG BONE,0.951 ± 0.11
9,HS57T BREAST,0.497 ± 0.031
10,HS578T BREAST,0.527 ± 0.047
11,HSSYII SYNOVIAL,0.616 ± 0.018
12,HT1080 SOFT TISSUE,0.733 ± 0.039
13,HU09 BONE,0.513 ± 0.0057
14,JIMT1 BREAST,0.571 ± 0.034
15,JURKAT HAEMATOPOIETIC AND LYMPHOID TISSUE,0.572 ± 0.0079
16,KPD BONE,0.457 ± 0.016
17,LM7 BONE,0.803 ± 0.1
18,MCF7 BREAST,0.502 ± 0.046
19,MDAMB134 BREAST,0.63 ± 0.069
20,MDAMB157 BREAST,0.747 ± 0.05

# Same assay, conditions: 10 nM; exposure time: 5 days
row,Test System,surviving fraction
1,22RV1 PROSTATE,0.375 ± 0.031
2,93VU HEADNECK,0.841 ± 0.065
3,143B BONE,0.824 ± 0.018
4,A549 LUNG,0.842 ± 0.017
5,ASKA SYNOVIAL,0.62 ± 0.049
6,BT20 BREAST,0.378 ± 0.042
7,BT549 BREAST,0.499 ± 0.079
8,CADOES1 SOFT TISSUE,0.472 ± 0.11
9,CAL51 BREAST,0.376 ± 0.0096
10,CAL120 BREAST,0.486 ± 0.026
11,CASKI CERVIX,0.402 ± 0.029
12,CHLA90 AUTONOMIC GANGLIA,0.343 ± 0.011
13,CME SYNOVIAL,1.15 ± 0.16
14,COLO320DM LARGE INTESTINE,0.843 ± 0.074
15,DU4475 BREAST,0.161 ± 0.03
16,H23 LUNG,0.501 ± 0.039
17,HCC38 BREAST,0.925 ± 0.069
18,HCC70 BREAST,0.536 ± 0.024
19,HCC78 LUNG,0.627 ± 0.11
20,HCC202 BREAST,0.578 ± 0.13

row,Test System,surviving fraction
1,HCC1806 BREAST,0.851 ± 0.051
2,HCC1954 BREAST,0.428 ± 0.08
3,HCT15 LARGE INTESTINE,0.511 ± 0.013
4,HELA CERVIX,1.036 ± 0.0052
5,HMLE3 BREAST,0.682 ± 0.016
6,HMT3552 BREAST,0.598 ± 0.032
7,HOS BONE,0.742 ± 0.021
8,HOSMNG BONE,0.979 ± 0.07
9,HS57T BREAST,0.445 ± 0.016
10,HS578T BREAST,0.524 ± 0.042
11,HSSYII SYNOVIAL,0.566 ± 0.025
12,HT1080 SOFT TISSUE,0.577 ± 0.045
13,HU09 BONE,0.512 ± 0.048
14,JIMT1 BREAST,0.561 ± 0.022
15,JURKAT HAEMATOPOIETIC AND LYMPHOID TISSUE,0.557 ± 0.033
16,KPD BONE,0.422 ± 0.019
17,LM7 BONE,0.785 ± 0.12
18,MCF7 BREAST,0.495 ± 0.024
19,MDAMB134 BREAST,0.642 ± 0.11
20,MDAMB157 BREAST,0.692 ± 0.011
